{"source": "patent US12622896B2", "about": "“Antiviral compounds, compositions and methods of use” (THE UNIVERSITY OF BRITISH COLUMBIA, priority 2019, dated 2026)", "key": {"[1]": {"tested_on": "HIV-1IIIB (subtype B, X4-tropic)", "test": "Anti-HIV viral spread assay in CEM-GXR cells, wild-type subtype B", "format": "cell-based", "excerpt": "To validate these EC50 values, the anti-HIV drug, emtricitabine (FTC) was included in the anti-HIV assay as a positive control."}, "[2]": {"tested_on": "E1A RNA isoforms (13S, 12S, 9S)", "test": "E1A transcript alternative splicing by RT-PCR in A549 cells", "format": "cell-based, adenovirus", "details": "by 16 h p.i.", "procedure": "A549 cells were infected with adenovirus-C5 at a MOI of 100 for 1 h after which virus was removed and replaced with media containing DMSO or GPS491 (2.5 μM or 5 μM). Total RNA was extracted at 8 h, 16 h, or 24 h after virus infection. After cDNA generation, RT-PCR was performed using E1A specific primers.\nTo assess whether the altered pattern of E1A expression could be attributed to changes in viral RNA accumulation or splicing, RT-PCR analysis was performed. The E1A transcript is the first viral RNA generated upon adenovirus infection and can be processed into three different mRNAs by alternative splicing; designated 13S, 12S, and 9S as shown in FIG. 20(A). The abundance of the different E1A RNA isoforms fluctuates over the course of adenovirus infection; 13S and 12S predominating at early times p.i., while 9S is the major E1A RNA at later times. As shown in FIG. 20(B), the treatment of the cells with the GPS491 (12c) compound at both concentrations induced a shift in the E1A transcript splicing which favoured the production of the 13S RNA transcript as compared to the DMSO control which favoured the production of the 9S RNA transcript. […] As early as 8 h p.i., while 13S and 12S RNAs were the predominate isoforms in both DMSO and GPS491 treated samples, GPS491 addition increased the relative abundance of 13S RNA. […]"}, "[3]": {"tested_on": "adenovirus genome", "test": "Adenovirus viral DNA replication by qPCR in A549 cells", "format": "cell-based", "details": "2.5 μM", "procedure": "For adenovirus DNA analysis, cells were seeded on 6 cm plates at a density of 1×10^6 cells per plate. The next day, cells were infected with HAdV-C5 (MOI 100) for 1 h, inoculum was removed and replaced with medium containing DMSO or GPS491 (2.5 μM). At the indicated times post-infection, cells were collected and washed in 1×PBS. Cells were lysed using 200 uL lysis buffer (10 mM Tris-HCl [pH 8.0], 75 mM NaCl, 0.1% SDS, 0.5% NP-40, 0.5% Tween 20, 0.5 mg/ml proteinase K) at 56° C. for 4 to 5 h and the mixture was boiled for 15 min. Samples were centrifuged at 13000×g and supernatant was collected. All samples from a given experiment were processed at the same time. Adenovirus DNA levels were determined by qPCR as previously detailed in Grosso F. et al. (2017). J Virol. 91(3):e01623-16.\nTo assess whether the altered pattern of E1A expression could be attributed to changes in viral RNA accumulation or splicing, RT-PCR analysis was performed. The E1A transcript is the first viral RNA generated upon adenovirus infection and can be processed into three different mRNAs by alternative splicing; designated 13S, 12S, and 9S as shown in FIG. 20(A). The abundance of the different E1A RNA isoforms fluctuates over the course of adenovirus infection; 13S and 12S predominating at early times p.i., while 9S is the major E1A RNA at later times. […]"}, "[4]": {"tested_on": "229E coronavirus", "test": "microbe, parasite or virus in culture", "format": "cell-based, coronavirus 229E", "details": "Huh7 cells"}, "[5]": {"tested_on": "SARS-CoV2", "format": "cell-based", "details": "Huh7 cells, 0.1 μM to 10 μM, two days post infection"}, "[6]": {"tested_on": "Huh7 cell line", "details": "24 hr, Alamar Blue"}, "[7]": {"test": "in vitro", "details": "human"}, "[8]": {"tested_on": "PI-resistant isolate (2948)", "test": "Anti-HIV assay against PI-resistant isolate 2948", "details": "Human immunodeficiency virus 1, read-out: EC50 against PI-resistant isolate 2948", "method": "(§1) The anti-HIV activity of the compounds was measured by a human T-cell reporter assay based on CEM-GXR cells. These cells express GFP due to the activation of the tat-dependent promoter upon HIV-1 infection, and the level of infection was monitored using Flow cytometric analysis (Guavasoft 2.2™ software, Guava HT8, Millipore™). Antiviral activity was evaluated in an assay that measures the inhibition of HIV-1 spread in a co-culture of CEM-GXR cells containing one percent of HIV-1 infected (GFP positive) cells."}, "[9]": {"tested_on": "Maraviroc-resistant variant of HIV-1BaL", "test": "Anti-HIV assay against Maraviroc-resistant R5 strain", "details": "Human immunodeficiency virus 1, read-out: EC50 against Maraviroc-resistant HIV-1 strain", "method": "as §1\nThis Maraviroc-resistant variant derived from a R5 strain of HIV-1BaL contains five mutations within the envelope V3 loop: A19T, L20F, T22A, E25D, and I26V."}, "[10]": {"tested_on": "HIV-1 Env, Tat and Gag", "test": "Western blot of viral protein levels in HeLa B2 cells", "details": "increasing concentrations 250 nM to 2.5 μM, 24 h"}, "[11]": {"tested_on": "(N)NRTI-resistant isolate (E00443)", "test": "Anti-HIV assay against (N)NRTI-resistant isolate E00443", "details": "Human immunodeficiency virus 1, read-out: EC50 against isolate E00443", "method": "as §1"}, "[12]": {"tested_on": "SRSF5", "test": "SR protein abundance by Western blot in HeLa rtTA HIVΔmls cells: SRSF5", "details": "2.5 μM, 24 h, relative to DMSO", "method": "(§2) After 24 h of treatment, cells were harvested in 1×PBS, 2 mM EDTA and cell pellet resuspended in RIPA buffer. […] To assess effects on SR protein expression, cells were harvested in RIPA buffer containing phosphatase inhibitors and lysates fractionated on StainFree™ SDS-PAGE gels. Western blots were probed with one of the following antibodies: mouse α-SRSF1 (Life Technologies™, Cat: 32-4500), rabbit α-SRSF2 (BD Pharmingen™, Cat: 556363), mouse α-SRSF3 (Life Technologies™, Cat: 33-4200), rabbit α-SRSF4 (Novus Biologicals™, Cat: 2-04144), rabbit α-SRSF5 (MBL, RN082PW), rabbit α-SRSF6 (Novus Biologicals™, Cat: NBP2-04142), rabbit α-SRSF7 (Abcam™, Cat: ab137247), and rabbit α-SRSF9 (MBL, Cat: RN081PW), rabbit α-Tra2p (Abcam™, Cat: ab31353), and rabbit α-GAPDH (Sigma™, Cat: G9545). The following secondary antibodies were used: α-mouse, horseradish peroxidase (HRP)-conjugated IgG (Jackson Immunoresearch Laboratories™, Cat: 715-036-150) or α-rabbit, HRP-conjugated IgG (Jackson Immunoresearch Laboratories™, Cat: 711-036-152). […] Quantification of the relative intensity of the detected bands was done using ImageLab software and normalized to corresponding bands of the loading control (GAPDH, tubulin, or total protein).\n(§3) Briefly, cell lysates from HeLa rtTA HIVΔmls cells treated for 24 h with either DMSO or GPS491 were fractionated on SDS-PAGE gels and individual factors detected by Western blot."}, "[13]": {"tested_on": "SRSF9", "test": "SR protein abundance by Western blot in HeLa rtTA HIVΔmls cells: SRSF9", "details": "2.5 μM, 24 h, relative to DMSO", "method": "as §2, §3"}, "[14]": {"tested_on": "SRSF6", "test": "SR protein abundance by Western blot in HeLa rtTA HIVΔmls cells: SRSF6", "details": "2.5 μM, 24 h, relative to DMSO", "method": "as §2, §3"}, "[15]": {"tested_on": "SRSF4", "test": "SR protein abundance and phosphorylation by Western blot in HeLa rtTA HIVΔmls cells: SRSF4"}}}
{"smiles": "O=C(Nc1nc2ccc(C(F)(F)F)cc2s1)c1cnc(C(F)(F)F)s1", "note": "[12c, 2-(trifluoromethyl)-N-(6-(trifluoromethyl)benzo[d]thiazol-2-yl)thiazole-5-carboxamide]", "values": [{"measurement": "EC50", "setting": "[1]; Human immunodeficiency virus 1, CEM-GXR cells, viral spread, nonlinear regression, read-out: EC50 (WT Subtype B)", "value": 248, "unit": "nM"}, {"measurement": "potency relative to GPS488 (12a)", "setting": "[1]; subtype A and B assays", "value": 4.5, "unit": "times"}, {"measurement": "13S RNA share of all E1A RNAs", "setting": "[2]", "value": "> 90", "unit": "%"}, {"measurement": "viral DNA accumulation", "setting": "[3]", "value": "levels comparable to that observed immediately after virus addition"}, {"measurement": "effect on replication of 229E", "setting": "[4]", "value": "marked inhibition"}, {"measurement": "EC50", "setting": "[4]; Human coronavirus 229E, Huh-7, dose response", "value": "~250", "unit": "nM"}, {"measurement": "effect on replication of SARS-CoV2", "setting": "[5]", "value": "suppress replication"}, {"measurement": "toxicity against the Huh7 cell line", "setting": "[6]", "value": "minimal toxicity"}, {"measurement": "CC50", "setting": "[7]", "value": 10, "unit": "µM"}, {"measurement": "EC50", "setting": "[8]", "value": 230, "unit": "nM"}, {"measurement": "EC50", "setting": "[9]", "value": 216, "unit": "nM"}, {"measurement": "expression of Env, Tat and Gag", "setting": "[10]", "value": "reduced expression"}, {"measurement": "EC50", "setting": "[11]", "value": 235, "unit": "nM"}, {"measurement": "increase of SRSF5 level", "setting": "[12]", "value": 1.5, "unit": "fold"}, {"measurement": "increase of SRSF9 level", "setting": "[13]", "value": 1.5, "unit": "fold"}, {"measurement": "reduction of SRSF6 abundance", "setting": "[14]", "value": 50, "unit": "%"}, {"measurement": "reduction of SRSF4 abundance", "setting": "[15]; 2.5 μM, 24 h, relative to DMSO", "value": 20, "unit": "%"}, {"measurement": "SRSF4 phosphorylation (gel mobility, phosphatase treatment)", "setting": "[15]; GPS491 vs DMSO treated samples", "value": "increased phosphorylation"}]}
